Values after ≈ are worked out from the molar mass of the structure shown. Active and inactive are the calls of the source. The rule behind the calls is not given here.

The nature of assay [1]: Electrochemical behavior of the compound in acetonitrile assessed as redox potential E1 at 1 mM using Ag/Ag+ electrode by cyclic voltammetry.
Assay [2] in a line: Electrochemical behavior of the compound in acetonitrile assessed as redox potential E2 at 1 mM using Ag/Ag+ electrode by cyclic voltammetry.
Assay [3] has as its system Mycobacterium tuberculosis. The experiment in a line: Antimycobacterial activity against Mycobacterium tuberculosis MC2 6230 assessed as reduction in cell viability incubated for 5 days by resazurin based method. In kind it is functional. The following applies: MC2 6230, 120 h. (In general: Alamar Blue is a resazurin reagent that responds to reducing activity.)
Assay [4] concerns Mycobacterium tuberculosis. The experiment in a line: Antimycobacterial activity against Mycobacterium tuberculosis H37Rv incubated fro 96 hrs. It counts as functional.
Assay [5] in a line: Electrochemical behavior of the compound in acetonitrile/tolunene assessed as redox potential E2 at 1 mM using Ag/Ag+ electrode by cyclic voltammetry.
Assay [6] can be described thus: Electrochemical behavior of the compound in acetonitrile/tolunene assessed as redox potential E1 at 1 mM using Ag/Ag+ electrode by cyclic voltammetry.
In assay [7] the test system is Mycolicibacterium smegmatis MC2 155. Description: Activation of NDH-2 in Mycobacterium smegmatis MC2 155 inverted membrane vesicles assessed as increase in oxygen consumption rate in presence of NADH by fluorespirometry.
The test system of assay [8] is Mycobacterium tuberculosis. Description: Antimycobacterial activity against Mycobacterium tuberculosis incubated for 7 days by resazurin dye based assay. It counts as functional. The following applies: 168 h.

One may read the MIC as the lowest concentration found to suppress growth. In the case of `Cc1ccc2c(n1)C(=O)C(Cl)=C(NC(C)(C)C)C2=O`, the Activity in assay [1] was -0.69 V; in assay [2], -1.25 V. Moreover, the MIC in assay [3] was 256 µM (≈ 71.4 µg/mL).

`O=C1C(NC2CCCCCCC2)=CC(=O)c2ncccc21` had an MIC in assay [4] of 3.5 µM (≈ 0.995 µg/mL).

For the compound `CCCNC1=C(Cl)C(=O)c2ccc(C)nc2C1=O`, the Activity in assay [1] is -0.56 V; in assay [2], -0.97 V. For the same compound, in assay [3], the minimum inhibitory concentration (MIC) was 128 µM (≈ 33.9 µg/mL).

On to `CCCCCCCCCCCCCCc1ccc(NC2=C(Cl)C(=O)c3cccnc3C2=O)cc1`, for which the Activity was -1 V in assay [5] and -0.44 V in assay [6]. For the same compound, in assay [3], the MIC was > 512 µM.

Regarding `CCCCCCCCNC1=C(Cl)C(=O)c2cccnc2C1=O`, the figures for the Activity in assay [1] and in assay [2] were -0.68 V and -1.27 V, respectively. Besides, the MIC in assay [3] came out at 64 µM (≈ 20.5 µg/mL).

Take `CCCCCCCCNC1=C(Cl)C(=O)c2nc(C)ccc2C1=O`: the Activity in assay [1] is -0.72 V; in assay [2] it was -1.27 V. Also, the MIC in assay [3] was found to be 128 µM (≈ 42.9 µg/mL).

Turning to `COc1ccc(CNC2=C(Cl)C(=O)c3cccnc3C2=O)cc1`, the Activity is -0.63 V in assay [1] and -1.24 V in assay [2]. For the same compound, the MIC in assay [3] was 16 µM (≈ 5.26 µg/mL).

In the case of `CCCCCCCc1ccc(NC2=C(Cl)C(=O)c3ncccc3C2=O)cc1`, the Activity in assay [1] is -0.58 V; in assay [2] it was -1.15 V. In addition, the MIC in assay [3] is 64 µM (≈ 24.5 µg/mL).

In the case of `O=C1C(NCCc2ccccc2)=C(Cl)C(=O)c2ncccc21`, the Activity in assay [1] was -0.6 V; in assay [2] it was -1.15 V. Also, the MIC in assay [3] turned out to be 128 µM (≈ 40 µg/mL).

`C#CCNC1=C(Cl)C(=O)c2ccc(C)nc2C1=O`: the figures for the Activity in assay [1] and in assay [2] were -0.51 V and -1.1 V, respectively. Moreover, the MIC in assay [3] amounted to 256 µM (≈ 66.7 µg/mL).

`O=C1C(Nc2ccccc2)=C(Cl)C(=O)c2ncccc21`: the Activity in assay [1] was -0.46 V; in assay [2], -1.06 V. Also, in assay [3], the MIC was > 512 µM.

`Cc1ccc2c(n1)C(=O)C(Nc1ccccc1)=C(Cl)C2=O`: the Activity in assay [1] is -0.44 V; in assay [2], -0.9 V. Also, the MIC in assay [3] amounted to 256 µM (≈ 76.5 µg/mL).

`C#CCNC1=C(Cl)C(=O)c2nc(C)ccc2C1=O`: the Activity in assay [1] was -0.55 V; in assay [2] it was -1.05 V. The MIC in assay [3] was 64 µM (≈ 16.7 µg/mL).

`Cc1ccc2c(n1)C(=O)C(NCCc1ccccc1)=C(Cl)C2=O`: the results for the Activity in assay [1] and in assay [2] were -0.7 V and -1.3 V, respectively. The MIC in assay [3] amounted to 16 µM (≈ 5.23 µg/mL).

With `CCCCCCCCNC1=C(Cl)C(=O)c2ncccc2C1=O`, the Activity in assay [1] is -0.67 V; in assay [2] it was -1.26 V. Moreover, the MIC in assay [3] was 16 µM (≈ 5.13 µg/mL).

`C#CCNC1=C(Cl)C(=O)c2ncccc2C1=O`: the Activity in assay [1] is -0.5 V; in assay [2], -1.1 V. In addition, the MIC in assay [3] was 8 µM (≈ 1.97 µg/mL). The result in assay [7] was Active.

For the compound `Cc1ccc2c(n1)C(=O)C(Cl)=C(N(C)C)C2=O`, the Activity in assay [1] is -0.62 V; in assay [2], -1.11 V. Further, the minimal inhibitory concentration (MIC) in assay [3] came out at 512 µM (≈ 128 µg/mL).

As for `CCCCCCCCCCCCCCc1ccc(NC2=C(Cl)C(=O)c3ncccc3C2=O)cc1`, the Activity was -1.1 V in assay [5] and -0.78 V in assay [6]. Besides, in assay [3], the MIC is > 512 µM.

On to `Cc1ccc2c(n1)C(=O)C(Cl)=C(Nc1ccccc1)C2=O`, for which the Activity was -0.47 V in assay [1] and -1.05 V in assay [2]. Besides, the MIC in assay [3] was found to be 512 µM (≈ 153 µg/mL).

In the case of `Cc1ccc2c(n1)C(=O)C(N(C)C)=C(Cl)C2=O`, the Activity in assay [1] was -0.6 V; in assay [2], -1.13 V. Also, in assay [3], the MIC is > 512 µM.

Consider `CCCNC1=C(Cl)C(=O)c2ncccc2C1=O`, for which the values for the Activity in assay [1] and in assay [2] were -0.6 V and -1.16 V, respectively. Further, the MIC in assay [3] is 128 µM (≈ 32.1 µg/mL).

Regarding `COc1ccc(CNC2=C(Cl)C(=O)c3ncccc3C2=O)cc1`, the figures for the Activity in assay [1] and in assay [2] were -0.61 V and -1.18 V, respectively. Moreover, the MIC in assay [3] is 32 µM (≈ 10.5 µg/mL).

As for `O=C1C(Cl)=C(NCCc2ccccc2)C(=O)c2ncccc21`, the Activity in assay [1] was -0.64 V; in assay [2] it was -1.21 V. The MIC in assay [3] amounted to 16 µM (≈ 5 µg/mL).

In the case of `Cc1ccc2c(n1)C(=O)C(Cl)=C(N1CCCCC1)C2=O`, the Activity was -0.57 V in assay [1] and -1.13 V in assay [2]. Further, in assay [3], the MIC was found to be 128 µM (≈ 37.2 µg/mL).

For the compound `Cc1ccc2c(n1)C(=O)C(N1CCCCC1)=C(Cl)C2=O`, the Activity was -0.61 V in assay [1] and -1.17 V in assay [2]. Besides, the MIC in assay [3] came out at 256 µM (≈ 74.4 µg/mL).

As to `COc1ccc(CNC2=C(Cl)C(=O)c3ccc(C)nc3C2=O)cc1`, the Activity in assay [1] is -0.52 V; in assay [2], -1.1 V. Moreover, the MIC in assay [3] was 16 µM (≈ 5.48 µg/mL).

For `C#CCNC1=C(Cl)C(=O)c2cccnc2C1=O`, the Activity in assay [1] was -0.49 V; in assay [2], -1.07 V. In addition, the MIC in assay [3] was 128 µM (≈ 31.6 µg/mL).

`O=C1C(NCCCl)=C(Cl)C(=O)c2ncccc21` came in with a minimal inhibitory concentration (MIC) in assay [8] of 8 µM (≈ 2.17 µg/mL).

Consider `CCCNC1=C(Cl)C(=O)c2nc(C)ccc2C1=O`, for which the Activity is -0.6 V in assay [1] and -1.17 V in assay [2]. Moreover, in assay [3], the MIC is 512 µM (≈ 136 µg/mL).

On to `CCCNC1=C(Cl)C(=O)c2cccnc2C1=O`, for which the Activity is -0.59 V in assay [1] and -1.16 V in assay [2]. Besides, the MIC in assay [3] turned out to be 128 µM (≈ 32.1 µg/mL).

Regarding `NNC(=O)c1ccncc1` [ISONIAZID], the MIC in assay [3] is 0.2 µM (≈ 0.0274 µg/mL).

As to `Cc1ccc2c(n1)C(=O)C(Cl)=C(NCCc1ccccc1)C2=O`, the figures for the Activity in assay [1] and in assay [2] were -0.73 V and -1.3 V, respectively. Also, the MIC in assay [3] worked out at 128 µM (≈ 41.8 µg/mL).

Consider `CC1=CC(=O)c2ccccc2C1=O`, for which the Activity was -0.7 V in assay [1] and -1.27 V in assay [2].

On to `Cc1ccc2c(n1)C(=O)C(NC(C)(C)C)=C(Cl)C2=O`, for which the results for the Activity in assay [1] and in assay [2] were -0.59 V and -1.1 V, respectively. Also, the MIC in assay [3] was > 512 µM.

Consider `O=C1C(Cl)=C(Nc2ccccc2)C(=O)c2ncccc21`, for which the Activity in assay [1] is -0.42 V; in assay [2], -1 V. Further, the MIC in assay [3] was 512 µM (≈ 146 µg/mL).

Take `CCCCCCCc1ccc(NC2=C(Cl)C(=O)c3cccnc3C2=O)cc1`: the Activity in assay [1] is -0.57 V; in assay [2], -1.08 V. The MIC in assay [3] came out at 32 µM (≈ 12.3 µg/mL).

These data come from ChEMBL document CHEMBL4385630, “The synthesis and evaluation of quinolinequinones as anti-mycobacterial agents” (2019).
